According to BindingDB's records for doi:10.1021/jm050524f (The Scripps Research Institute, 2005):

Experiments:
[1] = target: Hypoxia-inducible factor 1-alpha (Homo sapiens, UniProt Q16665); test: Effective concentration to inhibit production of hypoxia inducible factor 1-alpha protein
[2] = Inhibitory concentration against NADH-ubiquinone oxidoreductase
[3] = Inhibitory concentration against NADH ubiquinone oxidoreductase

Sequence of Hypoxia-inducible factor 1-alpha (Q16665 whole entry): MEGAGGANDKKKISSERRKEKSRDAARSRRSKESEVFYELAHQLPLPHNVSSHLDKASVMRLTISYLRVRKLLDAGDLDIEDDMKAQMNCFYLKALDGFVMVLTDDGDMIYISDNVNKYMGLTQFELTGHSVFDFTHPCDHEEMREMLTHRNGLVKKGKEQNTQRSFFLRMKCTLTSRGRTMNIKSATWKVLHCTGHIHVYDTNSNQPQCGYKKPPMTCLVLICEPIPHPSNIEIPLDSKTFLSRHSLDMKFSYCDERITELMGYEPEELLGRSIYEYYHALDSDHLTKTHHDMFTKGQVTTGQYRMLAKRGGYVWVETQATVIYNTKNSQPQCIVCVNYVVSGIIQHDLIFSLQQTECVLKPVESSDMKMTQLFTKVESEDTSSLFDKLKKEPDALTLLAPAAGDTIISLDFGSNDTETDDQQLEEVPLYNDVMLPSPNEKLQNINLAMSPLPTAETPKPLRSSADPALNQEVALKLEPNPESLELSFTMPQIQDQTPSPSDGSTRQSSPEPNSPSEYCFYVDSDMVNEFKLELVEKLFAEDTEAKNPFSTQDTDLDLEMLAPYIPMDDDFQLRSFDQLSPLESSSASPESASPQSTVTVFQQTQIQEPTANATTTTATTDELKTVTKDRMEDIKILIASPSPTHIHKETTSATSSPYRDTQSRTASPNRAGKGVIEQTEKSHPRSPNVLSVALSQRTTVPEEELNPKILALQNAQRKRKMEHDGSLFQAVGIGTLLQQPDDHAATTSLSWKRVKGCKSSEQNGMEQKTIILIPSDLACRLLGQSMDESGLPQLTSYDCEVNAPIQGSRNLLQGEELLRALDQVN

| EC50 [1] [nM] | IC50 [2] [nM] | IC50 [3] [nM] | Compound |
| --- | --- | --- | --- |
| 35000 | – | – | COc1c(C(C)n2cnc3ncccc32)ccc2c1C=CC(C)(C)O2 (stereo not given) [1-[1-(5-Methoxy-2,2-dimethyl-2H-chromen-6-yl)-ethyl]-1H-imidazo[4,5-b]pyridine] |
| – | 18 | 18 | C=C(Cc1cc(OC)c(OC)c(OC)c1)c1ccc2c(c1)CCC(C)(C)O2 [2,2-Dimethyl-6-[1-(3,4,5-trimethoxy-benzyl)-vinyl]-chroman] |
| – | 55 | 55 | COc1cc(COC(=O)c2ccc3c(c2)C=CC(C)(C)O3)cc(OC)c1OC [2,2-Dimethyl-2H-chromene-6-carboxylic acid 3,4,5-trimethoxy-benzyl ester] |
